Test results published in patent publication US20120122860A1, “SOLID FORMS OF SULFONAMIDES AND AMINO ACIDS” (Plexxikon, Inc., priority 2009, published 2012).
pIC50: −log10 of the molar value.

Experiments:
C-Raf = C-Raf (Homo sapiens, UniProt P04049); assay: Kinase activity assay, C-Raf
Btk = Btk (Homo sapiens, UniProt Q06187); assay: Kinase activity assay, Btk
Src = Src (Homo sapiens, UniProt P12931); assay: Kinase activity assay, Src
PI3Kα = PI3Kα (Homo sapiens, UniProt P42336); assay: Kinase activity assay, PI3Kα
PI3Kα, sequence (P42336 whole entry): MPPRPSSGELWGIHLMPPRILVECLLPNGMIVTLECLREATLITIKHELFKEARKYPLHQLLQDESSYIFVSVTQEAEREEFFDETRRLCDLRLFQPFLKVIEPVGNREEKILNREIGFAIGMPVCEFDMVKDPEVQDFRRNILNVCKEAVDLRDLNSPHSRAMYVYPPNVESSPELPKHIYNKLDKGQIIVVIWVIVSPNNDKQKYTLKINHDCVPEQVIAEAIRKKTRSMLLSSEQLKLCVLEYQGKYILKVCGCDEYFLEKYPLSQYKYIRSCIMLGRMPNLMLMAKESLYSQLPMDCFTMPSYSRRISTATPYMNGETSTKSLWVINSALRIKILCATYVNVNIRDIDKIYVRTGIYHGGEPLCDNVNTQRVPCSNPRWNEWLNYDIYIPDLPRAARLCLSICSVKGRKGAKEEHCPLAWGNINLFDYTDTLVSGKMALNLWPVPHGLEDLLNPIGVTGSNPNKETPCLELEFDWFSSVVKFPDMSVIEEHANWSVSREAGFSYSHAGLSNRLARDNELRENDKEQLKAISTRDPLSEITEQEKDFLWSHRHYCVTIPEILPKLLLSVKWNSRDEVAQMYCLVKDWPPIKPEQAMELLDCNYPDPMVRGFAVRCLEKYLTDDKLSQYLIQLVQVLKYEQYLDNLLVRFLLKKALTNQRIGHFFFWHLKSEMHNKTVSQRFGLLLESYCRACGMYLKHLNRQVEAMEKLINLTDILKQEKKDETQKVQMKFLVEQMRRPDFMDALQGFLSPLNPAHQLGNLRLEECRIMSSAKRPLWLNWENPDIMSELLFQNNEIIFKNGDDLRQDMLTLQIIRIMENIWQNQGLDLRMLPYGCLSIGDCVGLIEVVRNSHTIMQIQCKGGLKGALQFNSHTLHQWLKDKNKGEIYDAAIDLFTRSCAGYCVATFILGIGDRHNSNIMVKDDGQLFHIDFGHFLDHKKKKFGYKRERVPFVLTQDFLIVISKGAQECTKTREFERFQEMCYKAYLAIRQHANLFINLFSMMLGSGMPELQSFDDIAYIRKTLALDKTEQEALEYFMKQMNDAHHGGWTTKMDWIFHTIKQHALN
PI3Kα, sequence (P27986 whole entry partner): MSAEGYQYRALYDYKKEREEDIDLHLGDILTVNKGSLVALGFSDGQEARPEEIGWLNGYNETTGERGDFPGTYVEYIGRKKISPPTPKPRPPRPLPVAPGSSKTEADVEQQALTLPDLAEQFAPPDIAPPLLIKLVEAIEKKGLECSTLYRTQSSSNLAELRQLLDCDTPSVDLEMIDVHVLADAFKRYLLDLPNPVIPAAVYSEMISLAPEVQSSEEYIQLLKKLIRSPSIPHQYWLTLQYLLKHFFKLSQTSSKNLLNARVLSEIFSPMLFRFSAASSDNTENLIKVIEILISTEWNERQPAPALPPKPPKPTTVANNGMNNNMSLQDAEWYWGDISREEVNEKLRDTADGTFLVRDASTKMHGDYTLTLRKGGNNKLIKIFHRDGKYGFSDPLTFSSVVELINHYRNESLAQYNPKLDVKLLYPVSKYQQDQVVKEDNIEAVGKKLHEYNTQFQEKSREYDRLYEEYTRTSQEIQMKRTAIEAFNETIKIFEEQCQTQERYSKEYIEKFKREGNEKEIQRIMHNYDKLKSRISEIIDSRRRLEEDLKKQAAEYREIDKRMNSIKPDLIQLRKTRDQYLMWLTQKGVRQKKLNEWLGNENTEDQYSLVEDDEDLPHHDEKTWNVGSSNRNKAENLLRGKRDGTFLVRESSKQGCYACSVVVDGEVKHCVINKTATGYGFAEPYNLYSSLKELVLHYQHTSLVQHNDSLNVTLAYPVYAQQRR

B-Raf V600E = B-Raf V600E (Homo sapiens, UniProt P15056, V600E); assay: Kinase activity assay, B-Raf V600E; type: biochemical; settings: read-out: activity toward kinase B-Raf V600E, IC50
B-Raf V600E, sequence (P15056 whole entry V600E): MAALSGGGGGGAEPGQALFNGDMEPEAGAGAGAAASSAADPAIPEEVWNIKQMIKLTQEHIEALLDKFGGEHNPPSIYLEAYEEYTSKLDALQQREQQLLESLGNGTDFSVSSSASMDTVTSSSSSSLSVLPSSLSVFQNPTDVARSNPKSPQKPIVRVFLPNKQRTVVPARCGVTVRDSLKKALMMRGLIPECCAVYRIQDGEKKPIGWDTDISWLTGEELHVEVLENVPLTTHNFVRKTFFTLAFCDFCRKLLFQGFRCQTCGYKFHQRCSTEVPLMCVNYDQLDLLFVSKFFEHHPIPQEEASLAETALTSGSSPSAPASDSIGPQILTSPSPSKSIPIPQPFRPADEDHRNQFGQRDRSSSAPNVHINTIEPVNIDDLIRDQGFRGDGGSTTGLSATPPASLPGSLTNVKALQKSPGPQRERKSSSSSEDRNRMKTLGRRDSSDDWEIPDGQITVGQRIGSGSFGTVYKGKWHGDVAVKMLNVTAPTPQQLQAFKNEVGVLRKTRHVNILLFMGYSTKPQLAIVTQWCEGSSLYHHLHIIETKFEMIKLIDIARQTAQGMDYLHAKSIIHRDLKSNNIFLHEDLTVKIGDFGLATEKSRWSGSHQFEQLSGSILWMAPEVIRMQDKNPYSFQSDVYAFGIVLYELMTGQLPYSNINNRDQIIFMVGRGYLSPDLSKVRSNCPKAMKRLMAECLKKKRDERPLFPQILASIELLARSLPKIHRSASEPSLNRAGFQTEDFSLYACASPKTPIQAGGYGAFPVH

TEC = target: T1, TEC (Homo sapiens, UniProt P42680); assay: Kinase activity assay, TEC
T1 sequence (P42680 1-631): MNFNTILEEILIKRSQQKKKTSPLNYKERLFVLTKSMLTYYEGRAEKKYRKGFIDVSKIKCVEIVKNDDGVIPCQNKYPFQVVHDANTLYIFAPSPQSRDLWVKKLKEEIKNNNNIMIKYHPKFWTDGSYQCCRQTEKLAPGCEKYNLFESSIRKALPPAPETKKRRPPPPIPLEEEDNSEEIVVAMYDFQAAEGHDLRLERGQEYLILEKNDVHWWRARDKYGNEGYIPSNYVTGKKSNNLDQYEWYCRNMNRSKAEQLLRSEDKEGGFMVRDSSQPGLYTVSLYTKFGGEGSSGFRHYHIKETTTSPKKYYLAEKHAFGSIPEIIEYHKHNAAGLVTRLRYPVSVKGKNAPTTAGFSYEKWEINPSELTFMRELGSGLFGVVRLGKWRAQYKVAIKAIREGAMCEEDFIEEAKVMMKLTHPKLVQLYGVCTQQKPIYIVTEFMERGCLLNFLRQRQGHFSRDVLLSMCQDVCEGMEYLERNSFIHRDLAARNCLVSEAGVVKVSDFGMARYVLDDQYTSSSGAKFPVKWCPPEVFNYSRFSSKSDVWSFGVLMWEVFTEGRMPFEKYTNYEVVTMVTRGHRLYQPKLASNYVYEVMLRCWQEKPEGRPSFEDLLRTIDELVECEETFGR

B-Raf = B-Raf (Homo sapiens, UniProt P15056); assay: Kinase activity assay, B-Raf; type: biochemical; settings: read-out: activity toward kinase B-Raf, IC50
B-Raf, sequence (P15056 whole entry): as the sequence (P15056 whole entry V600E) above, with E600V counted along it

Kdr = Kdr (Homo sapiens, UniProt P35968); assay: Kinase activity assay, Kdr
Kit = Kit (Homo sapiens, UniProt P10721); assay: Kinase activity assay, Kit
Fms = Fms (Homo sapiens, UniProt P07333); assay: Kinase activity assay, Fms

Measured: pIC50

Btk, sequence (Q06187 whole entry): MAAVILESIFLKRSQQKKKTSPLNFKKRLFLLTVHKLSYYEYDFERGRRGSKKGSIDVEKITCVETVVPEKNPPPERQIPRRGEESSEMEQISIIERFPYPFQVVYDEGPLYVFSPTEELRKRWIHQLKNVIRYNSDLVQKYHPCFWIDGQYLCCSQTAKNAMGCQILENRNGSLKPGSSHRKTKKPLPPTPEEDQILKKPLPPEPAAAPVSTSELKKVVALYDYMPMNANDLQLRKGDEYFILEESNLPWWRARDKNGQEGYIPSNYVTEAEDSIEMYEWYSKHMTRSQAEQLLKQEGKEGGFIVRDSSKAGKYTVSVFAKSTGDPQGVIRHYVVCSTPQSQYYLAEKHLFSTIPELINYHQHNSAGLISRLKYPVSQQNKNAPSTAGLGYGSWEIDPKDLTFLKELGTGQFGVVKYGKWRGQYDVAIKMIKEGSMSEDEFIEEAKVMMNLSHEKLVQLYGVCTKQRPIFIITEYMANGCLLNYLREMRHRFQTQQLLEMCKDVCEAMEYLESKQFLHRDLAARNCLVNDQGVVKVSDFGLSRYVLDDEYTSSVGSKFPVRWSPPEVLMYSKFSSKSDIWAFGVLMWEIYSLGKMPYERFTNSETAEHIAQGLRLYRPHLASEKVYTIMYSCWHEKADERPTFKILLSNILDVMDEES
Src, sequence (P12931 whole entry): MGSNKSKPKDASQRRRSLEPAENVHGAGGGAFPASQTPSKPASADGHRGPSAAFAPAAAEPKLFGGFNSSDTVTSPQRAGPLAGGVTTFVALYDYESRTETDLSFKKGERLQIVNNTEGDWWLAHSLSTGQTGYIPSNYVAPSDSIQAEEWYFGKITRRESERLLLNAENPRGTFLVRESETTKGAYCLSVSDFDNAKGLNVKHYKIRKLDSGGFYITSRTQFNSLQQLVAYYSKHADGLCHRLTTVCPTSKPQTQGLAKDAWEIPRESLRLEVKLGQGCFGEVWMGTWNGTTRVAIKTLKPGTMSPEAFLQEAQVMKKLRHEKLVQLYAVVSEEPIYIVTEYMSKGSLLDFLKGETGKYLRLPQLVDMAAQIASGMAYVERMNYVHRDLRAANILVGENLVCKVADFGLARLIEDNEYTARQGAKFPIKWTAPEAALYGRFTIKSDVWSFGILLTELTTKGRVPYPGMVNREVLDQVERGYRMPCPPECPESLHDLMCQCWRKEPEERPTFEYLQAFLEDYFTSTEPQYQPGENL
C-Raf, sequence (P04049 whole entry): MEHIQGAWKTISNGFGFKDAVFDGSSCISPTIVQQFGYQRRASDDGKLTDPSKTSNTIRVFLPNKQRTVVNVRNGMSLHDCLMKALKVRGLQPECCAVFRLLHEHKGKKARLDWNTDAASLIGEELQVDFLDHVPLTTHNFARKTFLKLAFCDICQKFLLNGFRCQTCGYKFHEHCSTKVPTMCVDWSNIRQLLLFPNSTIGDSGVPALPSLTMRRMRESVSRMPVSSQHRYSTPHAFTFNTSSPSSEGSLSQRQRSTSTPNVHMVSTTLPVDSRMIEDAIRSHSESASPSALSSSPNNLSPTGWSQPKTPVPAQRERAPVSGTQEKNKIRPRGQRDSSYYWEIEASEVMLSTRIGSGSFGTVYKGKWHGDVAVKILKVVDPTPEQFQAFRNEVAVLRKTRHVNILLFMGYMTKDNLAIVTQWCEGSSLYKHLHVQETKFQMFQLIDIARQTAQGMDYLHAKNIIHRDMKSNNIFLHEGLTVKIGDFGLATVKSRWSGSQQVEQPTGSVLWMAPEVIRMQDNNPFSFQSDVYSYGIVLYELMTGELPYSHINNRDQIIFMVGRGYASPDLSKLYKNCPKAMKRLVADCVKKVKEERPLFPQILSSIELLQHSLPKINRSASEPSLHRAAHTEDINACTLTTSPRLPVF

COc1ncc(-c2cnc3[nH]cc(C(=O)c4c(F)ccc(NS(=O)(=O)c5cccc(F)c5)c4F)c3c2)cn1 [P-2045, N-{2,4-Difluoro-3-[5-(2-methoxy-pyrimidin-5-yl)-1H-pyrrolo[2,3-b]pyridine-3-carbonyl]-phenyl}-3-fluoro-benzenesulfonamide]
not listed: Kdr | Kit | Fms
≥ 5.00: all other assays above

CCC(C)S(=O)(=O)Nc1ccc(F)c(C(=O)c2c[nH]c3ncc(-c4cnc(OC)nc4)cc23)c1F (stereo not shown) [P-2323, Butane-2-sulfonic acid {2,4-difluoro-3-[5-(2-methoxy-pyrimidin-5-yl)-1H-pyrrolo[2,3-b]pyridine-3-carbonyl]-phenyl}-amide]
not listed: Kit | Fms
≥ 5.00: all other assays above

COc1ncc(-c2cnc3[nH]cc(C(=O)c4c(F)ccc(NS(=O)(=O)c5c(F)cccc5F)c4F)c3c2)cn1 [P-2043, N-{2,4-Difluoro-3-[5-(2-methoxy-pyrimidin-5-yl)-1H-pyrrolo[2,3-b]pyridine-3-carbonyl]-phenyl}-2,6-difluoro-benzenesulfonamide]
≥ 5.00: all assays above

COc1ncc(-c2cnc3[nH]cc(C(=O)c4c(F)ccc(NS(=O)(=O)C5CCCCC5)c4F)c3c2)cn1 [P-2371, Cyclohexanesulfonic acid {2,4-difluoro-3-[5-(2-methoxy-pyrimidin-5-yl)-1H-pyrrolo[2,3-b]pyridine-3-carbonyl]-phenyl}-amide]
≥ 5.00: all assays above

CCN(CC)S(=O)(=O)Nc1ccc(F)c(C(=O)c2c[nH]c3ncc(-c4cnc(OC)nc4)cc23)c1F [P-2401, N,N-diethylamino-sulfonic acid {2,4-difluoro-3-[5-(2-methoxy-pyrimidin-5-yl)-1H-pyrrolo[2,3-b]pyridine-3-carbonyl]-phenyl}-amide]
not listed: B-Raf | Fms
≥ 5.00: all other assays above

COc1ncc(-c2cnc3[nH]cc(C(=O)c4c(F)ccc(NS(=O)(=O)c5ncn[nH]5)c4F)c3c2)cn1 [P-2080]
not listed: Kit | Fms
≥ 5.00: all other assays above

COc1ncc(-c2cnc3[nH]cc(C(=O)c4c(F)ccc(NS(=O)(=O)c5ccccn5)c4F)c3c2)cn1 [P-2079]
not listed: Kit | Fms
≥ 5.00: all other assays above

COc1ncc(-c2cnc3[nH]cc(C(=O)c4c(F)ccc(NS(=O)(=O)C5CCCC5)c4F)c3c2)cn1 [P-2372, Cyclopentanesulfonic acid {2,4-difluoro-3-[5-(2-methoxy-pyrimidin-5-yl)-1H-pyrrolo[2,3-b]pyridine-3-carbonyl]-phenyl}-amide]
not listed: Fms
≥ 5.00: all other assays above

COc1ncc(-c2cnc3[nH]cc(C(=O)c4c(F)ccc(NS(=O)(=O)c5ccccc5F)c4F)c3c2)cn1 [P-2041, N-{2,4-Difluoro-3-[5-(2-methoxy-pyrimidin-5-yl)-1H-pyrrolo[2,3-b]pyridine-3-carbonyl]-phenyl}-2-fluoro-benzenesulfonamide]
not listed: Fms
≥ 5.00: all other assays above

COc1ncc(-c2cnc3[nH]cc(C(=O)c4c(F)ccc(NS(=O)(=O)N(C)C)c4F)c3c2)cn1 [P-2399, N,N-dimethylamino-sulfonic acid {2,4-difluoro-3-[5-(2-methoxy-pyrimidin-5-yl)-1H-pyrrolo[2,3-b]pyridine-3-carbonyl]-phenyl}-amide]
not listed: Kit | Fms
≥ 5.00: all other assays above

COc1ncc(-c2cnc3[nH]cc(C(=O)c4c(F)ccc(NS(=O)(=O)C(C)C)c4F)c3c2)cn1 [P-2287, Propane-2-sulfonic acid {2,4-difluoro-3-[5-(2-methoxy-pyrimidin-5-yl)-1H-pyrrolo[2,3-b]pyridine-3-carbonyl]-phenyl}-amide]
not listed: Kit | Fms
≥ 5.00: all other assays above

COc1ncc(-c2cnc3[nH]cc(C(=O)c4c(F)ccc(NS(=O)(=O)N5CCOCC5)c4F)c3c2)cn1 [P-2402, Morpholine-4-sulfonic acid {2,4-difluoro-3-[5-(2-methoxy-pyrimidin-5-yl)-1H-pyrrolo[2,3-b]pyridine-3-carbonyl]-phenyl}-amide]
not listed: Kdr | Kit | Fms
≥ 5.00: all other assays above
